Patent publication US7273717B2 (priority 2003, dated 2007)
Like-named read-outs stand apart in the source and are kept apart here. Peptide text beside a SMILES is read from it. * marks the point of attachment. Cbz = O=C(OCc1ccccc1)*

Columns and labels:
GS-9005 hydrolase A = assay type: biochemical, human; conditions: pH 6.5; read-out: Inhibition profile IC50, 9005 Hydrolase A
GS-9005 hydrolase B = assay type: biochemical, human
[1] = pH 6.5, read-out: Inhibition profile IC50, 9005 Hydrolase B
[2] = read-out: concentration at which GS-9005 hydrolase B is inhibited by 50%

Structure (SMILES)	IC50 (GS-9005 hydrolase A) [µM]	inhibition of GS-9005 hydrolase B (in words) (GS-9005 hydrolase B)	IC50 (GS-9005 hydrolase B; [1]) [µM]	IC50 (GS-9005 hydrolase B; [2]) [µM]
O=c1oc(Cl)c(Cl)c2ccccc12 [3,4 DCI, 3,4 dichloroisocoumarin]	> 150	inhibited	4	~4
CCOP(=O)(OCC)Oc1ccc([N+](=O)[O-])cc1 [paraoxon]	0.03		0.02	~0.02
O=C[C@@H]1CCCN1C(=O)[C@@H]1CCCN1C(=O)OCc1ccccc1 [Cbz-pro-pro-COH, Carboxybenzoyl-Pro-Pro-COH] (Cbz-Pro-Pro-aldehyde)			> 100	> 100
